These results are taken from patent US11242351B2, “Tricyclic inhibitors of the BCL6 BTB domain protein-protein interaction and uses thereof” (priority 2017, dated 2022).

pEC50, pIC50, pKd: −log10 of the molar value. Where two headings read alike, the source gives them in different places.

Test [1] concerns Karpas422 cells. The test is described as follows: Tumor cell growth inhibition assay. It counts as cell-based. As to conditions: Homo sapiens, KARPAS-422, 144 h, read-out: GI Karpas EC50. On the procedure: Tumor Cell Growth Inhibition Assay:
Karpas422 cells were seeded into a 96-well plate at 2,000 cells/well in 150 μl medium (Alpha-MEM containing 10% FBS, […] Normocin, and […] Gentamycin, Invitrogen). A HP D300 digital dispenser was used to dose cells with DMSO or test compounds across a 10-point range of concentrations (high dose of 5 μM), and cultures were grown in a humidified 5% CO2 incubator at 37° C. After six days, plates were removed from incubator and equilibrated to room temperature. An equal volume of ATPlite assay reagent was added to each well, and samples were processed according to the manufacturer's instructions (Perkin Elmer). The luminescent signal was measured using an Envision plate reader equipped with a US-Luminescence detector.

In test [2] the test system is BCL6 reporter construct in SuDHL4-3×BCL6-TK-Luc cells. The test is described as follows: Cell-based luciferase assay (BCL6 reporter). The following applies: 48 h, read-out: Luc IC50. On the procedure:
Cell-Based Luciferase Assay:
A BCL6 reporter construct containing three copies of the consensus BCL6 binding site, the TK promoter, and the firefly luciferase gene was stably expressed in SuDHL4 cells after lentivirus infection and selection with Blasticidin. SuDHL4-3×BCL6-TK-Luc cells were seeded into a Viewplate 384-well assay dish at 15,000 cells/well in […] (Alpha-MEM high glucose containing 10% FBS, 25 mM HEPES, […] GlutaMAX, 100 µg/mL Normocin, and […] Gentamycin, Invitrogen). A HP D300 digital dispenser was used to dose cells with DMSO or test compounds across a 10-point range of concentrations (high dose of 10 μM), and cultures were grown in a humidified 5% CO2 incubator at 37° C. After two days, plates were removed from the incubator and equilibrated to room temperature. An equal volume of neolite reporter gene assay reagent was added to each well, and samples were processed according to the manufacturer's instructions (Perkin Elmer). The luminescent signal was measured using an Envision plate reader equipped with a US-Luminescence detector.

Test [3] deals with BCL6 BTB domain (biotin-thrombin-BCL6 amino acids 1-129) (Homo sapiens (Human), UniProt P41182). The test is described as follows: Surface Plasmon Resonance (SPR) assay. The format is binding. As to conditions: Biacore T200, single cycle kinetic analysis. On the procedure:
Surface Plasmon Resonance (SPR) Assay
SPR studies were performed using a Biacore™ T200 instrument (GE Health Sciences Inc.). […] The Biacore flow rate was set at 100 μl/min. […] Curve fitting and KD calculations were performed with the Biacore T200 Evaluation software (GE Health Sciences Inc).

Setting [4] is: Karpas422 cells, six days, ATPlite.
The mark [5] stands for this setting: SuDHL4-3×BCL6-TK-Luc cells, two days.

As usually defined, the pEC50 is the negative decadic logarithm of the EC50, by convention in mol/L. By pIC50 is commonly meant the negative decadic logarithm of the IC50, by convention in mol/L. The term pKd denotes −log10 of the Kd, conventionally taken in molar units. A high value points to a low Kd. `NC(=O)c1cc(-c2cn(CC(=O)Nc3cc(N4CCOCC4)ccc3Cl)c3nc4n(c(=O)c23)CCC4)c(F)c(F)c1O` [I-31, 5-(1-(2-((2-chloro-5-morpholinophenyl)amino)-2-oxoethyl)-4-oxo-4,6,7,8-tetrahydro-1H-dipyrrolo[1,2-a:2′,3′-d]pyrimidin-3-yl)-3,4-difluoro-2-hydroxy-benzamide]: the pEC50 in test [1] was 5.57. The pIC50 in test [2] was 5.20. Moreover, the pKd in test [3] was 6.85.

Consider `CN1CCN(c2ccc(Cl)c(NC(=O)Cn3cc(-c4cc(C(N)=O)c(O)c(F)c4F)c4c(=O)n5c(nc43)CCC5)c2)CC1` [I-32, 5-(1-(2-((2-chloro-5-(4-methylpiperazin-1-yl)phenyl)amino)-2-oxo-ethyl)-4-oxo-4,6,7,8-tetrahydro-1H-dipyrrolo [1,2-a:2′,3′-d]pyrimidin-3-yl)-3,4-difluoro-2-hydroxybenzamide], for which the negative-log EC50 (pEC50) in test [1] (setting [4]) is 5.87. Also, the pIC50 in test [2] (setting [5]) is 5.45. The pKd in test [3] is 6.58.

Regarding `C[C@H]1CN(C)CCN1c1cc(NC(=O)Cn2cc(-c3cc(C(N)=O)c(O)c(F)c3F)c3c(=O)n4c(nc32)COCC4)c(Cl)c(F)n1` [I-33, (S)-5-(1-(2-((3-chloro-6-(2,4-dimethylpiperazin-1-yl)-2-fluoropyridin-4-yl)amino)-2-oxoethyl)-4-oxo-4,6,7,9-tetrahydro-1H-pyrrolo[2′,3′:4,5]pyrimido[2,1-c][1,4]oxazin-3-yl)-3,4-difluoro-2-hydroxybenzamide], the pEC50 in test [1] was 6.67. Moreover, the pIC50 in test [2] is 6.83. In addition, the pKd in test [3] is 7.96.

For the compound `C[C@H]1CN(C2COC2)CCN1c1cc(NC(=O)Cn2cc(-c3cc(C(N)=O)c(O)c(F)c3F)c3c(=O)n4c(nc32)COCC4)c(Cl)c(F)n1` [I-34, (S)-5-(1-(2-((3-chloro-2-fluoro-6-(2-methyl-4-(oxetan-3-yl)piperazin-1-yl)pyridin-4-yl)amino)-2-oxoethyl)-4-oxo-4,6,7,9-tetrahydro-1H-pyrrolo[2′,3′:4,5]pyrimido [2,1-c][1,4]oxazin-3-yl)-3,4-difluoro-2-hydroxy-benzamide], the pEC50 in test [1] was 6.75. Moreover, in test [2], the pIC50 is 6.81. In addition, the pKd in test [3] was 8.14.

With `C[C@H]1CN(CCC(F)(F)F)CCN1c1cc(NC(=O)Cn2cc(-c3cc(C(N)=O)c(O)c(F)c3F)c3c(=O)n4c(nc32)CCC4)c(Cl)cn1` [I-35, (S)-5-(1-(2-((5-chloro-2-(2-methyl-4-(3,3,3-trifluoropropyl)piperazin-1-yl)pyridin-4-yl)amino)-2-oxoethyl)-4-oxo-4,6,7,8-tetrahydro-1H-dipyrrolo[1,2-a:2′,3′-d]pyrimidin-3-yl)-3,4-difluoro-2-hydroxy-benzamide], the pEC50 in test [1] (setting [4]) is 6.71. The pIC50 in test [2] (setting [5]) was 6.63. The pKd in test [3] was 7.61.

As to `CN1CCN(c2cc(NC(=O)Cn3cc(-c4cc(C(N)=O)c(O)c(F)c4F)c4c(=O)n5c(nc43)CCC5)c(Cl)cn2)CC1` [I-36, 5-(1-(2-((5-chloro-2-(4-methylpiperazin-1-yl)pyridin-4-yl)amino)-2-oxoethyl)-4-oxo-4,6,7,8-tetrahydro-1H-dipyrrolo[1,2-a:2′,3′-d]pyrimidin-3-yl)-3,4-difluoro-2-hydroxy-benzamide], the pEC50 in test [1] was 6.32. In addition, in test [2], the pIC50 was 6.15. For the same compound, the pKd in test [3] was 7.63.

In the case of `CO[C@@H](C)CN1CCN(c2cc(NC(=O)Cn3cc(-c4cc(C(N)=O)c(O)c(F)c4F)c4c(=O)n5c(nc43)CCC5)c(Cl)c(F)n2)[C@@H](C)C1` [I-37, 5-(1-(2-((3-chloro-2-fluoro-6-((S)-4-((S)-2-methoxypropyl)-2-methylpiperazin-1-yl)pyridin-4-yl)amino)-2-oxoethyl)-4-oxo-4,6,7,8-tetrahydro-1H-dipyrrolo[1,2-a:2′,3′-d]pyrimidin-3-yl)-3,4-difluoro-2-hydroxy-benzamide], the pEC50 in test [1] (setting [4]) is 6.95. The pIC50 in test [2] (setting [5]) is 6.96. Besides, in test [3], the pKd was 7.84.

With `C[C@@H](C1CC1)N1CCN(c2cc(NC(=O)Cn3cc(-c4cc(C(N)=O)c(O)c(F)c4F)c4c(=O)n5c(nc43)CCC5)c(Cl)c(F)n2)[C@@H](C)C1` [I-38, 5-(1-(2-((3-chloro-6-((S)-4-((S)-1-cyclo-propylethyl)-2-methyl-piperazin-1-yl)-2-fluoropyridin-4-yl)amino)-2-oxoethyl)-4-oxo-4,6,7,8-tetrahydro-1H-dipyrrolo [1,2-a:2′,3′-d]pyrimidin-3-yl)-3,4-difluoro-2-hydroxybenzamide], in test [1] (setting [4]), the pEC50 was 6.35. In addition, in test [2] (setting [5]), the pIC50 was 6.71. This compound also had a pKd in test [3] of 7.49.

For `C[C@H](C1CC1)N1CCN(c2cc(NC(=O)Cn3cc(-c4cc(C(N)=O)c(O)c(F)c4F)c4c(=O)n5c(nc43)CCC5)c(Cl)c(F)n2)[C@@H](C)C1` [I-39, 5-(1-(2-((3-chloro-6-((S)-4-((R)-1-cyclo-propylethyl)-2-methyl-piperazin-1-yl)-2-fluoropyridin-4-yl)amino)-2-oxoethyl)-4-oxo-4,6,7,8-tetrahydro-1H-dipyrrolo[1,2-a:2′,3′-d]pyrimidin-3-yl)-3,4-difluoro-2-hydroxy-benzamide], the pEC50 in test [1] (setting [4]) was 6.42. Also, the pIC50 in test [2] (setting [5]) was 6.68. In test [3], this compound gave a pKd of 7.46.

Regarding `C[C@H]1CN(CCC(F)(F)F)CCN1c1cc(NC(=O)Cn2cc(-c3cc(C(N)=O)c(O)c(F)c3F)c3c(=O)n4c(nc32)CCC4)c(Cl)c(F)n1` [I-40, (S)-5-(1-(2-((3-chloro-2-fluoro-6-(2-methyl-4-(3,3,3-trifluoropropyl)piperazin-1-yl)pyridin-4-yl)amino)-2-oxoethyl)-4-oxo-4,6,7,8-tetrahydro-1H-dipyrrolo[1,2-a:2′,3′-d]pyrimidin-3-yl)-3,4-difluoro-2-hydroxy-benzamide], the pEC50 in test [1] (setting [4]) is 6.56. In test [2] (setting [5]), the pIC50 is 6.73. This compound also had a pKd in test [3] of 6.87.

Turning to `C[C@H]1COCCN1c1cc(NC(=O)Cn2cc(-c3cc(C(N)=O)c(O)c(F)c3F)c3c(=O)n4c(nc32)CCCC4)c(Cl)c(F)n1` [I-42, (S)-5-(1-(2-((3-chloro-2-fluoro-6-(3-methyl-morpholino)pyridin-4-yl)amino)-2-oxoethyl)-4-oxo-1,4,6,7,8,9-hexahydropyrido [1,2-a]pyrrolo[2,3-d]pyrimidin-3-yl)-3,4-difluoro-2-hydroxy-benzamide], the pEC50 in test [1] (setting [4]) was 6.48. Further, the pIC50 in test [2] (setting [5]) was 6.39. Moreover, the pKd in test [3] was 7.54.

Consider `CCN1CCN(c2cc(NC(=O)Cn3cc(-c4cc(C(N)=O)c(O)c(F)c4F)c4c(=O)n5c(nc43)CCCC5)c(Cl)c(F)n2)[C@@H](C)C1` [I-43, (S)-5-(1-(2-((3-chloro-6-(4-ethyl-2-methyl-piperazin-1-yl)-2-fluoropyridin-4-yl)amino)-2-oxoethyl)-4-oxo-1,4,6,7,8,9-hexahydropyrido [1,2-a]pyrrolo[2,3-d]pyrimidin-3-yl)-3,4-difluoro-2-hydroxy-benzamide], for which the pEC50 in test [1] (setting [4]) is 6.62. In addition, the pIC50 in test [2] (setting [5]) was 6.63. The pKd in test [3] is 7.37.

In the case of `C[C@H]1CN(C2COC2)CCN1c1cc(NC(=O)Cn2cc(-c3cc(C(N)=O)c(O)c(F)c3F)c3c(=O)n4c(nc32)CCCC4)c(Cl)c(F)n1` [I-44, (S)-5-(1-(2-((3-chloro-2-fluoro-6-(2-methyl-4-(oxetan-3-yl)piperazin-1-yl)pyridin-4-yl)amino)-2-oxo-ethyl)-4-oxo-1,4,6,7,8,9-hexahydropyrido [1,2-a]pyrrolo[2,3-d]pyrimidin-3-yl)-3,4-difluoro-2-hydroxy-benzamide], in test [1], the pEC50 is 6.51. The pIC50 in test [2] was 6.98. Further, the pKd in test [3] is 7.60.
